Ends that are not written are not given here. Peptide text beside a SMILES is read from it.
Assays:
[1] = assay type: physicochemical; settings: pH 8
Method: (§1) Large unilamellar vesicles (LUVs) were prepared by extrusion. POPC, 1-palmitoyl-2-oleoyl-sn-glycero-3-phosphocholine (Avanti Polar Lipids), or a mixture of POPC with 0.5% of 18:1 NBD-PE, 1,2-dioleoyl-sn-glycero-3-phosphoethanolamine-N-7-nitro-2-1,3-benzoxadiazol-4-yl ammonium salt (Avanti Polar Lipids) were dissolved in chloroform, desolvated on a rotary evaporator, and dried under high vacuum for several hours. The phospholipid film was then rehydrated in 10 mM phosphate buffer pH 8.0, vortexed until the lipid bilayer was completely dissolved, and repeatedly (15–21 times) extruded through the membranes with 50 nm pore sizes to obtain LUVs.
pH-dependent partitioning of the peptides into a lipid bilayer of the membrane was investigated by the shift of the position of the fluorescence spectral maximum for the peptides in the presence POPC liposomes induced by a drop of pH from 8 to 2.5 by the addition of HCl. The peptides were incubated overnight with 50-nm POPC liposomes (final concentration of the peptides and POPC in solution was 5 μM and 1 mM, respectively), and pH decrease was achieved by the addition of aliquots of 4, 2, 1 and 0.1 M HCl. pH was measured by micro-electrode probe (Thermo Electron Corporation, Orion Ross Micro pH electrode). Fluorescence spectra were recorded at each pH value. The spectra were analyzed by the decomposition algorithms using on-line PFAST toolkit[47] (Protein Fluorescence and Structural Toolkit: http://pfast.phys.uri.edu/) to establish the position of the emission maximum. Finally, the positions of the fluorescence spectral maxima (λmax) were plotted versus pH, and the Henderson–Hasselbalch equation was used to fit the data (using Origin 8.5 software): […]
where [drawing 3] and [drawing 4] are the beginning and the end of the transition, respectively, and pKa – is the midpoint of the transition.

[2] = Steady-state tryptophan fluorescence and CD with and without POPC liposomes; assay type: physicochemical; settings: for maximum position of the fluorescence spectrum λmax, Pep, pH8: peptide in phosphate buffer pH 8, no liposomes; for maximum position of the fluorescence spectrum λmax, Pep, pH8 / maximum position of the fluorescence spectrum λmax, Pep-PC, pH3 / maximum position of the fluorescence spectrum λmax, Pep-PC, pH8: 5 μM peptide, excitation 280 nm, 25 °C; for maximum position of the fluorescence spectrum λmax, Pep-PC, pH3 / S, normalized area under the spectra, Pep-PC, pH3: with POPC liposomes pH 3; for maximum position of the fluorescence spectrum λmax, Pep-PC, pH3 / maximum position of the fluorescence spectrum λmax, Pep-PC, pH8: 1.25 mM lipids; for S, normalized area under the spectra, Pep-PC, pH3 / S, normalized area under the spectra, Pep-PC, pH8: normalized on area for peptide at pH 8 in absence of POPC; for maximum position of the fluorescence spectrum λmax, Pep-PC, pH8 / S, normalized area under the spectra, Pep-PC, pH8: with POPC liposomes pH 8
Method: as §1
Freshly prepared peptides and POPC vesicles were mixed to have 5 μM of a peptide and 1.25 mM of lipids in the final solution. Steady-state fluorescence measurements were carried out on a PC1 spectrofluorometer (ISS, Inc.) under temperature control at 25 °C. Tryptophan fluorescence was excited at 280 nm (there is no Phe or Tyr in the peptides) and recorded with the excitation and emission slits set at 1 nm. The polarizers in the excitation and emission paths were set at the “magic” angle (54.7° from the vertical orientation) and vertically (0°), respectively. Steady state CD measurements were carried out in MOS 450 spectropolarimeter (Bio-Logic, Inc.) with the same concentrations of peptide and lipids used in fluorescence measurements.

[3] = Dual quenching assay (acrylamide / 10-DN); assay type: physicochemical; settings: 7 μM peptide, 2.1 mM POPC; for percentage of fluorescence quenching, Pep-PC+AC pH3 / percentage of fluorescence quenching, Pep-PC+AC pH8: 235 mM acrylamide; for percentage of fluorescence quenching, Pep-PC+AC pH3 / percentage of fluorescence quenching, Pep-PC+10-DN pH3: pH 3; for percentage of fluorescence quenching, Pep-PC+AC pH8 / percentage of fluorescence quenching, Pep-PC+10-DN pH8: pH 8; for percentage of fluorescence quenching, Pep-PC+10-DN pH3 / percentage of fluorescence quenching, Pep-PC+10-DN pH8: 10% of lipids replaced by 10-DN
From the text: To establish localization of the peptides within a lipid bilayer of membrane, dual quenching assay[28] was employed (Fig. 3 and Table S3). Effective quenching of fluorescence by acrylamide would occur only for tryptophan residues exposed to polar parts of the outer or inner leaflets of the bilayer. At the same time, tryptophan residues located in the middle of a membrane would be effectively quenched by 10-DN. The result of the dual quenching assay allows establishing if tryptophan residues were located in the middle of a membrane or close to the polar headgroups of the bilayer. […] Therefore, we also performed Förster resonance energy transfer (FRET) assay[29] (Fig. 4). First, symmetrically-labelled by NBD dye, POPC liposomes were prepared. Then, membrane-impermeable dithionite was used to chemically modify exposed NBD, which led to the quenching of NBD fluorescence. Thus, NBD dyes located at the outer leaflet of the bilayer were deactivated and excess of dithionite was removed by gel filtration. As a result, asymmetrically-labelled liposomes with active NBD at the inner leaflet were obtained. FRET was monitored from tryptophan residues of the peptides to NBD. Energy transfer might occur only when both fluorophores are in proximity to each other (within 5–15 Å). Thus, when tryptophan residues located at the outer leaflet of the bilayer no significant energy transfer to NBD at the inner leaflet would occur (the distance is about 50–60 Å). […] All other peptides were located at the outer leaflet of the bilayer at pH 8. Drop of pH promoted partitioning of all cyclic peptides into bilayer, which highest FRET for the c[E4W5C] at pH 3.
POPC liposomes without and with 10% of the lipids replaced by 10-doxylnonadecane (10-DN) (Avanti Polar Lipids) were prepared in 10 mM citrate-phosphate buffer pH 8.0. Peptides and POPC liposomes were mixed to generate final concentrations of 7 μM peptide and 2.1 mM POPC without and with 10-DN. […] Quencher, acrylamide (Sigma-Aldrich), was added to the samples of POPC liposomes containing no 10-DN, to have final concentration of 235 mM acrylamide. Concentration of peptides in all samples was kept constant. To observe quenching of tryptophan fluorescence by 10-DN or acrylamide, the tryptophan fluorescence was recorded as described above. The appropriate POPC blanks were measured and subtracted from the measured spectra before analysis. The percentage of quenching was calculated.

[4] = tested on: HeLa cells; settings: concentrations used in this study, treatment of 2-4 hours; cited from earlier work
Method: Symmetric, c[(WE)4WC], and asymmetric, c[E4W5C], cyclic peptides were evaluated for their ability to move polar cargo across the membrane. The experiments on live cells were performed at physiologically relevant pHs, such as pH 7.4 (extracellular pH of normal cells) and pH 6.0 (extracellular pH in the vicinity of cancer cells[12]). As a polar cargo, we used amanitin, which is a cell-impermeable cyclic p ...

Compound | apparent pK (pKa) of peptide's partitioning into the bilayer [1] | maximum position of the fluorescence spectrum λmax, Pep, pH8 [2] | maximum position of the fluorescence spectrum λmax, Pep-PC, pH3 [2] | S, normalized area under the spectra, Pep-PC, pH3 [2] | maximum position of the fluorescence spectrum λmax, Pep-PC, pH8 [2] | S, normalized area under the spectra, Pep-PC, pH8 [2] | percentage of fluorescence quenching, Pep-PC+AC pH3 [3] | percentage of fluorescence quenching, Pep-PC+AC pH8 [3] | percentage of fluorescence quenching, Pep-PC+10-DN pH3 [3] | percentage of fluorescence quenching, Pep-PC+10-DN pH8 [3] | pH-dependent interaction with / partitioning into the lipid bilayer of membrane ([2]; fluorescence and CD, POPC liposomes, pH 8 and pH 3) | cell death by amanitin alone [4]
CWEWEWEWEW [l(CW(EW)4)] | 5.7 |  |  |  |  |  |  |  |  |  |  | 
CC(C)C[C@@H]1NC(=O)[C@H](CS)NC(=O)[C@H](Cc2c[nH]c3ccccc23)NC(=O)[C@H](CCC(=O)O)NC(=O)[C@H](CC(C)C)NC(=O)[C@H](CCC(=O)O)NC(=O)[C@H](CC(C)C)NC(=O)[C@H](CCC(=O)O)NC(=O)[C@H](CC(C)C)NC(=O)[C@H](CCC(=O)O)NC1=O [c[(LE)4WC]] (cyclo(CLELELELEW)) | 4.7 | 348.7±0.3 nm | 339.6±1.2 nm | 1.1±0.1 | 348.2±0.6 nm | 1.1±0.0 | 59% | 96% | 17% | 0% |  | 
O=C(O)CC[C@@H]1NC(=O)[C@H](Cc2c[nH]c3ccccc23)NC(=O)[C@H](CS)NC(=O)[C@H](Cc2c[nH]c3ccccc23)NC(=O)[C@H](CCC(=O)O)NC(=O)[C@H](Cc2c[nH]c3ccccc23)NC(=O)[C@H](CCC(=O)O)NC(=O)[C@H](Cc2c[nH]c3ccccc23)NC(=O)[C@H](CCC(=O)O)NC(=O)[C@H](Cc2c[nH]c3ccccc23)NC(=O)[C@H](CCC(=O)O)NC(=O)[C@H](Cc2c[nH]c3ccccc23)NC1=O [c[(WE)5WC]] (cyclo(CWEWEWEWEWEW)) | 6.3 | 350.3±0.2 nm | 341.2±0.4 nm | 2.1±0.3 | 346.7±1.2 nm | 1.5±0.3 | 68% | 78% | 40% | 13% |  | 
N=C(N)NCCC[C@@H]1NC(=O)[C@H](CS)NC(=O)[C@H](Cc2c[nH]c3ccccc23)NC(=O)[C@H](Cc2c[nH]c3ccccc23)NC(=O)[C@H](Cc2c[nH]c3ccccc23)NC(=O)[C@H](Cc2c[nH]c3ccccc23)NC(=O)[C@H](Cc2c[nH]c3ccccc23)NC(=O)[C@H](CCCNC(=N)N)NC(=O)[C@H](CCCNC(=N)N)NC(=O)[C@H](CCCNC(=N)N)NC1=O [c[R4W5C]] |  |  |  |  |  |  |  |  |  |  | does not exhibit pH-dependent changes | 
O=C(O)CC[C@@H]1NC(=O)[C@H](Cc2c[nH]c3ccccc23)NC(=O)[C@H](CS)NC(=O)[C@H](Cc2c[nH]c3ccccc23)NC(=O)[C@H](CCC(=O)O)NC(=O)[C@H](Cc2c[nH]c3ccccc23)NC(=O)[C@H](CCC(=O)O)NC(=O)[C@H](Cc2c[nH]c3ccccc23)NC(=O)[C@H](CCC(=O)O)NC(=O)[C@H](Cc2c[nH]c3ccccc23)NC1=O [c[(WE)4WC]] (cyclo(CWEWEWEWEW)) | 6.4 | 350.5±0.2 nm | 341.1±0.9 nm | 1.6±0.2 | 347.5±1.2 nm | 1.1±0.1 | 50% | 82% | 40% | 11% |  | 
O=C(O)CC[C@@H]1NC(=O)[C@H](Cc2c[nH]c3ccccc23)NC(=O)[C@H](CS)NC(=O)[C@H](Cc2c[nH]c3ccccc23)NC(=O)[C@H](CCC(=O)O)NC(=O)[C@H](Cc2c[nH]c3ccccc23)NC(=O)[C@H](CCC(=O)O)NC(=O)[C@H](Cc2c[nH]c3ccccc23)NC1=O [c[(WE)3WC]] (cyclo(CWEWEWEW)) | 6.1 | 351.0±0.2 nm | 341.7±0.2 nm | 1.7±0.3 | 349.1±0.7 nm | 0.9±0.1 | 63% | 83% | 47% | 6% |  | 
alpha-amanitin |  |  |  |  |  |  |  |  |  |  |  | does not induce cell death
